One assay has as its system Human lung fibroblasts. Nature of the assay: TGF-beta-induced collagen and SMA in human lung fibroblasts (Western blot). To be noted: increasing doses, day 0, 1, 2. It is filed as cell-based. The method, then: FIG. 22. Human lung fibroblasts were treated with TGF-beta and increasing doses of CBR-470 and measured collagen and alpha-smooth muscle actin (a-SMA), a marker for myofibroblast differentiation at day 0, 1, and 2.
Fibrosis is defined by the overgrowth, hardening, and/or scarring of various tissues and is attributed to excess deposition of extracellular matrix components including collagen. Fibrosis is the end result of chronic inflammatory reactions induced by a variety of stimuli including persistent infections, autoimmune reactions, allergic responses, chemical insults, radiation, and tissue injury. Fibroblasts under stimulation by transforming growth factor (TGF)-β, a key cytokine in the pathogenesis of IPF, alter their gene expression profile with de novo expression of cytoskeletal and contractile proteins normally found within smooth muscle cells, and components of the extracellular matrix, including collagen. Fibroblast cells were treated with TGF-β for 24 or 48 hours or left untreated (0). Collagen was detected by Westernblot using an anti-collagen antibody (Cedarlane, CL50111AP-1, 1:3000 dilution). SMA was detected with an anti-SMA antibody from Sigma (T6074, 1:20000 dilution). […] Collagen and SMA production are biomarkers of fibrotic phenotypes in vivo (FIG. 22).

The next assay deals with GAPDH (Homo sapiens, UniProt P04406). Put plainly: GAPDH equilibrium in the GAPDH/PGK1 coupled assay. Format: biochemical. To be noted: without PGK1. An excerpt:
FIG. 6A-D. CBR-470-1 inhibits PGK1 in vitro and in situ. (a) Schematic of the GAPDH/PGK1 coupled assay. Pre-equilibration of the GAPDH reaction (top left) results in an NAD^+/NADH equilibrium, which upon addition of PGK1 and ADP pulls the reaction to the right producing more NADH. Monitoring NADH absorbance after addition of PGK1 (bottom right) can be used to monitor PGK1 activity in the forward direction (right). […] (c, d) Relative level of central metabolites in IMR32 cells treated with viral knockdown of PGK1 for 72 hours (c) (n=4) and with CBR-470-1 relative DMSO alone for the indicative times (d) (n=3). Each metabolite is normalized to the control condition at each time point. Data shown represent mean±SEM of biologically independent samples.
Recombinant PGK1 assay. PGK1 enzymatic activity in the forward direction was measured with a coupled enzymatic assay^34. Three PGK1 conditions were prepared by dissolving recombinant PGK1 in potassium phosphate buffer (10 mM KH2PO4, 10 mM MgSO4, pH 7.0), and transferring the aliquots of PGK1 solution to the microtubes being treated with same amount of DMSO and indicated concentrations of CBR-470-1. Final concentration of PGK1 is 20 ng/mL and DMSO is 1% for each sample. […] The change in absorbance at 340 nm at room temperature was measured every 20 seconds for 45 minutes, by Tecan Infinite M200 plate reader. […]

In the next assay the test system is alveolar macrophages. Nature of the assay: PM exposure of alveolar macrophages (Example 6). Format: cell-based. The text has this:
FIG. 30A-D. CBR-470 activates NRF2 and inhibits PM-induced inflammatory cytokine production from alveolar macrophages. (a-c) Indicated transcript levels in response to PM exposure for 4 hr in the presence and absence of CBR-470, PGK1 inhibitor (10 micromolar). (d) Western blot analysis of NRF2 protein levels under the conditions in a-c.
FIG. 31. Time dependent effects of CBR-470-1 on alveolar macrophage cytokine mRNA levels at specific timepoints
FIG. 32. […] This represents a distinct mechanism of action compared to many other pharmacologic NRF2 activators, which achieve efficacy through induction of ROS (reactive oxygen species).
Indicated transcript levels in response to PM exposure for 4 hr in the presence and absence of CBR-470-1, PGK1 inhibitor (10 micromolar). Western blot analysis of NRF2 protein levels. PM-exposure also results in activation of the NRF2 pathway, which is confirmed by increased transcript levels of its prototypical target Nqo1 (FIG. 30c) and NRF2 protein accumulation (FIG. 30d). […] FIG. 31 illustrates time dependent effects of CBR-470-1 on alveolar macrophage cytokine mRNA levels at specific timepoints. […] This represents a distinct mechanism of action compared to many other pharmacologic NRF2 activators, which achieve efficacy through induction of ROS (reactive oxygen species).

Assay [1] deals with MHS cells (a murine alveolar macrophage cell line). Put plainly: PM- or LPS-induced mRNA expression in MHS cells. It is filed as cell-based. The method, then:
FIG. 14A-B. MHS cells (a murine alveolar macrophage cell line) were treated with particulate matter (PM) or LPS and vehicle control (media) in the absence or presence of CBR-470-1 (pretreated 4 hours prior to PM/LPS) and measured IL-6 mRNA 4 hours later.
FIG. 15A-B. MHS cells were treated with particulate matter (PM) or LPS and vehicle control (media) in the absence or presence of CBR-470-1 (also noted as Drug in the figure) (pretreated 4 hours prior to PM/LPS) and measured TNFa and NQO1 mRNA 4 hours later. […] NQO1 (NAD(P)H:quinone oxidoreductase), also known as DT-diaphorase, is a major regulator of oxidative stress and activator of mitomycins. ROS produced during metabolic processes are normally converted into harmless products by antioxidant enzymes such as NQO1.
FIG. 16A-B. MHS cells were treated with particulate matter (PM) or LPS and vehicle control (media) in the absence or presence of different doses of CBR-470 (pretreated 4 hours prior to PM/LPS) and measured IL-6 mRNA 4 hours later.
FIG. 17A-B. MHS cells were treated with particulate matter (PM) or LPS and vehicle control (media) in the absence or presence of different doses of CBR-470-1 (pretreated 4 hours prior to PM/LPS) and measured TNFa and NQO1 mRNA 4 hours later.
FIG. 18A-C. MHS cells were treated with particulate matter (PM) or LPS and vehicle control (media) in the absence or presence of CBR-470-1 (5 uM, pretreated 4 hours prior to PM/LPS) and measured IL-6, TNFa and NQO1 mRNA 4 hours and 24 hours later.

The mark [2] stands for this setting: control and PM-treated cells, PM 4 hr.
Where [3] appears, read: pretreated 4 hours, measured 4 hours later.

“Also recorded” adds a separate entry of the source.

Sequence of GAPDH (P04406 whole entry, species assumed): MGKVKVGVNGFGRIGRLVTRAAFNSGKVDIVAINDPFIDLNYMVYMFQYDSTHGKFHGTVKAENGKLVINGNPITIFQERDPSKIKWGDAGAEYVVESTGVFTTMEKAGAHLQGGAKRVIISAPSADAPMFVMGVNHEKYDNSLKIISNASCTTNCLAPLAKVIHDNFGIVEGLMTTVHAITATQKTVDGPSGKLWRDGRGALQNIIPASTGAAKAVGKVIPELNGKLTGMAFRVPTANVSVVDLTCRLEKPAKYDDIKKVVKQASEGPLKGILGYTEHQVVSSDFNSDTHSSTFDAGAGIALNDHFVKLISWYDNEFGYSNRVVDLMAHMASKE

`CC(C)CN[C@H]1CS(=O)(=O)C[C@@H]1S(=O)(=O)c1ccc(Cl)cc1` [CBR-470-1]: in the assay on Human lung fibroblasts, the “alpha-smooth muscle actin (a-SMA), marker for myofibroblast differentiation” value is “dose- and time-dependent inhibition of collagen and smooth-muscle actin (SMA) protein production; also recorded: inhibited myofibroblast differentiation and collagen protein expression in a dose dependent manner”; the collagen protein result is “dose- and time-dependent inhibition of collagen and smooth-muscle actin (SMA) protein production; also recorded: inhibited myofibroblast differentiation and collagen protein expression in a dose dependent manner”. At GAPDH, the GAPDH equilibrium result is recorded as “does not affect the GAPDH equilibrium alone”. For the same compound, in the assay on alveolar macrophages (alveolar macrophages), the ROS elevation entry is given as “does not cause significant ROS elevation in alveolar macrophages” and the overall cellular bioenergetics entry is reported as “only a slight decrease in overall cellular bioenergetics”. Moreover, in the assay with alveolar macrophages (setting [2]), the “Il6 mRNA levels” value is “dose-dependent decreases in 116 and Tnfα mRNA levels in both control and PM-treated cells”; the “Tnfα mRNA levels” value is “dose-dependent decreases in 116 and Tnfα mRNA levels in both control and PM-treated cells”. Also, the “NRF2-signaling (Nqo1 transcript, NRF2 protein)” value in the assay on alveolar macrophages (control and PM-treated macrophages) is “activates NRF2-signaling in both control and PM-treated macrophages”. Besides, in assay [1] (different doses, 4 hours), the “NQO1 mRNA” value is “induced NQO1 (Nrf2 target gene) under both PM and LPS in a dose dependent manner”; the “TNFa mRNA” value was “attenuated PM- and LPS-induced TNFa mRNA expression”. Moreover, in assay [1] (setting [3]), the “IL-6 mRNA” value is “abolished PM- and LPS-induced il6 mRNA expression”; the “NQO1 mRNA” value was “induced NQO1 (Nrf2 target gene) under both PM and LPS”; the “TNFa mRNA” value was “abolished PM- and LPS-induced TNFa mRNA expression”.

The values are drawn from patent US12048686B2, “Compositions and methods for activating NRF2-dependent gene expression” (The University of Chicago, priority 2018, dated 2024).
